The values that follow are results of earlier work, collected in patent publication US9012464B2, “Salts and polymorphic forms of Afatinib” (Ratiopharm GmbH, priority 2010, dated 2015).

The conditions of this data set: acid compound used for forming afatinib salts.

Take `O=S(=O)(O)c1ccccc1` [Benzenesulphonic acid]: the pKa1 was 0.7.
